We go through 3 compounds from patent US8288386B2, “Melanocortin receptor agonists” (LG Life Sciences Ltd., priority 2008, dated 2012).

Usually EC50 stands for the concentration that produces a half-maximal response.

Structures are written as SMILES.

The target of this assay is T1, MC4R (Homo sapiens, UniProt P32245).
T1 construct: expressed in transfected cells; host or cells: HEK (Human Embryonic Kidney) permanent expression cell line HEK MC4R-Luc, with CRE-LUC reporter
T1 sequence (P32245 whole entry, species assumed): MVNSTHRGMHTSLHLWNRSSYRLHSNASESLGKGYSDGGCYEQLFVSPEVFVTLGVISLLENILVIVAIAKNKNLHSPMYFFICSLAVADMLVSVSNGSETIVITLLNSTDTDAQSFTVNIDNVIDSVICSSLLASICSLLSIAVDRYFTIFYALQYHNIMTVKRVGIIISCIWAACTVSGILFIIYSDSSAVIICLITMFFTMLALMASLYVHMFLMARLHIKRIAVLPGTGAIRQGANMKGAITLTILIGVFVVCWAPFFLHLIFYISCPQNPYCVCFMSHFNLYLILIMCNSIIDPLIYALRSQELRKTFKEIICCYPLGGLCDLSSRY
The assay can be described thus: MCR agonistic activity (luciferase assay / cAMP accumulation assay) in HEK MC4R-Luc cells. Particulars: agonistic activity to MC4R; ranges given; read-out: EC50 value in the range. It counts as cell-based. Here is the method: Physiological activity of the compounds of the present invention was assessed by measuring agonistic activity as well as binding activity for melanocortin receptors (MCR) according to methods A and B explained as follows.
As one of the methods to measure MCR agonistic activity of the compound according to the present invention, the expression level of a marker gene (for example, luciferase) which increases proportionally according to the increase of cAMP content in the cell, was measured.
First, permanent expression HEK (Human Embryonic Kidney) cell lines (HEK MC1R-Luc, MC3R-Luc, MC4R-Luc or MC5R-Luc) expressing the MCR gene of each subtype together with luciferase gene (CRE-LUC) under the control of CRE (cAMP Response Element) were constructed. The above cell lines were incubated in an incubator with 6% CO2 atmosphere at 37° C. using selection medium, DMEM (Dulbecco's Modified Eagles Medium) containing 10% heat-inactivated fetal bovine serum (Gibco/BRL), 100 unit/ml, penicillin (Gibco/BRL), 100 unit/ml streptomycin (Gibco/BRL), and 200 μg/ml geneticin (G418) (Gibco/BRL). […] After allowing the treated cells to be at room temperature for 15 minutes, luminescence was measured for each well by using luminometer (Victor). The level of luminescence induced by the stepwise-diluted agonist was converted to relative % value to those by the treatment of 10 μM NDP-MSH. […]
As another method to measure MCR agonistic activity of the compound according to the present invention, an increase of cAMP amount in the cell was measured.
First, permanent expression HEK (Human Embryonic Kidney) cell lines (HEK MC1R-Luc, MC3R-Luc, MC4R-Luc or MC5R-Luc) expressing the MCR gene of each subtype were plated onto each well of 24-well culture plates for Luminometer (Costar) with a concentration of 2×10^5 cell in 1 ml culture medium for each well, and then incubated in an incubator with 6% CO2 atmosphere at 37° C. for 24 hours. […] Then, the cAMP amount in each cell was measured using Amersham cAMP assay Kit (TRK432). […]
On the technique in general: Cyclic AMP is a second messenger, typically raised through Gs and lowered through Gi signalling.
As for `CC(=O)N(C1CCC(F)(F)CC1)[C@H]1C[C@@H](C(=O)N2CCN(C)CC2)N(C(=O)[C@@H]2CN(C(C)(C)C)C[C@H]2c2ccc(Cl)cc2)C1` [Example 27, N-{(3S,5S)-1-{[(3S,4R)-1-tert-butyl-4-(4-chlorophenyl)pyrrolidin-3-yl]carbonyl}-5-[(4-methylpiperazin-1-yl)carbonyl]pyrrolidin-3-yl}-N-(4,4-difluorocyclohexyl)acetamide], the half-maximal effective concentration (EC50) fell in the range of 100 to 1000 nM.
With `CC(C)C(=O)N(c1ccc(F)cc1F)[C@H]1C[C@@H](C(=O)N2CCN(C)CC2)N(C(=O)[C@@H]2CN(C(C)(C)C)C[C@H]2c2ccc(Cl)cc2)C1` [Example 79, N-{(3S,5S)-1-{[(3S,4R)-1-tert-butyl-4-(4-chlorophenyl)pyrrolidin-3-yl]carbonyl}-5-[(4-methylpiperazin-1-yl)carbonyl]pyrrolidin-3-yl}-N-(2,4-difluorophenyl)-2-methylpropanamide], the EC50 lay within 10 to 100 nM.
In the case of `CN1CCN(C(=O)[C@@H]2C[C@H](N(C(=O)c3ccco3)c3ccc(F)cc3F)CN2C(=O)[C@@H]2CN(C(C)(C)C)C[C@H]2c2ccc(F)cc2F)CC1` [Example 84, N-{(3S,5S)-1-{[(3S,4R)-1-tert-butyl-4-(2,4-difluorophenyl)pyrrolidin-3-yl]carbonyl}-5-[(4-methylpiperazin-1-yl)carbonyl]pyrrolidin-3-yl}-N-(2,4-difluorophenyl)-2-furamide], the EC50 was 100 to 1000 nM.
